For one data set, the target named is NaV1.1 (Homo sapiens (Human), UniProt P35498). Description: Sodium Influx Assay (Flux), NaV1.1. Format: cell-based. The conditions noted are these: Trex HEK293 cells, ANG2 dye; arithmetic mean.
For the next data set, the target named is NaV1.6 (Homo sapiens (Human), UniProt Q9UQD0). Briefly: Sodium Influx Assay (Flux), NaV1.6. To be noted: read-out: Flux NaV1.6 IC50; Trex HEK293 cells, ANG2 dye; arithmetic mean.
In the next data set the target is NaV1.5 (Homo sapiens (Human), UniProt Q14524). Briefly: Sodium Influx Assay (Flux), NaV1.5. To be noted: read-out: Flux NaV1.5 IC50; Trex HEK293 cells, ANG2 dye; arithmetic mean.

Molecules are shown by their SMILES. Where a name gives a salt, the structure may show the parent alone.

Chain of NaV1.5 (Q14524 other isoform, or with tags, fused parts or gaps): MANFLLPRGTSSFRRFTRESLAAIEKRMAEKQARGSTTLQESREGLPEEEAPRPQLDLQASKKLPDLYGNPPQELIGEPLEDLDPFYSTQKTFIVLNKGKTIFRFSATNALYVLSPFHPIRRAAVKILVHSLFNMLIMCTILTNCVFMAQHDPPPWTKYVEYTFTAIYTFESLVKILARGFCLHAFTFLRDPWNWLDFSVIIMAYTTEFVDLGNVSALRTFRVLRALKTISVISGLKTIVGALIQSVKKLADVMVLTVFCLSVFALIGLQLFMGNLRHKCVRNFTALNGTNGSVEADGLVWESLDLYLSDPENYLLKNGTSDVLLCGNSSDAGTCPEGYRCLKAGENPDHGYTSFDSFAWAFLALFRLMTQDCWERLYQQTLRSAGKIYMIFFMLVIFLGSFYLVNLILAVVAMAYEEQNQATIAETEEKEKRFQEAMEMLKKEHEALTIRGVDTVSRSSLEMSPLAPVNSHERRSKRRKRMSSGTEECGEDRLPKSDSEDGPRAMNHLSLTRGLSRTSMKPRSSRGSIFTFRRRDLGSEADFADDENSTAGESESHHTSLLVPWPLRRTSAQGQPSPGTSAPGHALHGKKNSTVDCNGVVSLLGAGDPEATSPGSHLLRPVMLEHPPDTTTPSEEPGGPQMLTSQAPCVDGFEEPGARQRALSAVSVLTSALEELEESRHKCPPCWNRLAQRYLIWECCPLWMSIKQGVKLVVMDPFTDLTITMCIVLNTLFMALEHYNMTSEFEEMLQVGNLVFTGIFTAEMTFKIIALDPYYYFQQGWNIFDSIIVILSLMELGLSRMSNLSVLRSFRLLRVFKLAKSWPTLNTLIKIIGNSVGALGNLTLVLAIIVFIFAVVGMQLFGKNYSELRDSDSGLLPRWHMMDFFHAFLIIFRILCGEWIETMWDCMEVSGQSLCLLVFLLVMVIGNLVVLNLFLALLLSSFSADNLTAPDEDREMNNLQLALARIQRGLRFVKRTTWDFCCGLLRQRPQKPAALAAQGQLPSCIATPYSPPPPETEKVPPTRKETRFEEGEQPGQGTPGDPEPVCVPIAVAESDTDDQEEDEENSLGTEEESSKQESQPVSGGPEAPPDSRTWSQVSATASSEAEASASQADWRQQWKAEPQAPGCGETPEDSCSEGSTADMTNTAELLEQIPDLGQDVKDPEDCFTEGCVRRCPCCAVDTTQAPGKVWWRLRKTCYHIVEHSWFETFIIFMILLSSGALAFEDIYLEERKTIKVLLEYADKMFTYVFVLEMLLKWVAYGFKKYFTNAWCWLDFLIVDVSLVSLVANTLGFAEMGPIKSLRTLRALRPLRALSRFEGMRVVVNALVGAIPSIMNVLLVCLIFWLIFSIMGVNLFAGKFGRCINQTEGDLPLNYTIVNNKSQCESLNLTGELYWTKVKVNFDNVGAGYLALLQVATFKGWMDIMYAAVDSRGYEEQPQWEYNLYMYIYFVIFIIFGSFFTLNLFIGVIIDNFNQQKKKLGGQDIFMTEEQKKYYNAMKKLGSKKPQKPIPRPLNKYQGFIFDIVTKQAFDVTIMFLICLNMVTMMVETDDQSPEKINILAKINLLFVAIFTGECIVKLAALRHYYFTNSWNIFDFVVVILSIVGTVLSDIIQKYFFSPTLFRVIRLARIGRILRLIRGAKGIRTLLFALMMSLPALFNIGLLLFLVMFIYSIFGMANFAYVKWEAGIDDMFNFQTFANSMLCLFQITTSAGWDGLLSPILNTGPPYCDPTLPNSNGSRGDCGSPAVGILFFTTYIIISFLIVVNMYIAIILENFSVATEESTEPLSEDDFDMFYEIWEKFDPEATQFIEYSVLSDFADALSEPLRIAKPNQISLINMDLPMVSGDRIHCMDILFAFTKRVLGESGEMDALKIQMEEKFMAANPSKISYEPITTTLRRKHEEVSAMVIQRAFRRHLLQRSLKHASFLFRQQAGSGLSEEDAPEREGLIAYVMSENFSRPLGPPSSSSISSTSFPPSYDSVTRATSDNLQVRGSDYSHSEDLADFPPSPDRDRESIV

`O=S(=O)(Nc1nccs1)c1ccc(OC2CCN(Cc3cccc(F)c3)CC2)c(Cl)c1` [Example 81, 3-chloro-4-(1-(3-fluorobenzyl)piperidin-4-yloxy)-N-(thiazol-2-yl)benzenesulfonamide]: the values for the IC50 on NaV1.1, on NaV1.6 and on NaV1.5 were 7.48 µM, 0.572 µM and 7.22 µM, respectively.
The corresponding values for `COc1cccc(CN2CCC(Oc3ccc(S(=O)(=O)Nc4nccs4)cc3Cl)CC2)c1` [Example 84, 3-chloro-4-(1-(3-methoxybenzyl)piperidin-4-yloxy)-N-(thiazol-2-yl)benzenesulfonamide] are 6 µM, 0.525 µM and 3.54 µM.
The corresponding values for `O=S(=O)(Nc1nccs1)c1ccc(OC2CCN(Cc3cccc(Cl)c3)CC2)c(Cl)c1` [Example 85, 3-chloro-4-(1-(3-chlorobenzyl)piperidin-4-yloxy)-N-(thiazol-2-yl)benzenesulfonamide] are 8.7 µM, 0.353 µM and 5.71 µM.
The matching figures for `Cc1cccc(CN2CC[C@H](Nc3cc(F)c(S(=O)(=O)Nc4nccs4)cc3Cl)C2)c1` [Example 86, (S)-5-chloro-2-fluoro-4-(1-(3-methylbenzyl)pyrrolidin-3-ylamino)-N-(thiazol-2-yl)benzenesulfonamide]: 5.37 µM, 0.588 µM and 12.5 µM.
For `O=S(=O)(Nc1nccs1)c1ccc(OC2CCN(Cc3ccccc3F)CC2)c(Cl)c1` [Example 90, 3-chloro-4-(1-(2-fluorobenzyl)piperidin-4-yloxy)-N-(thiazol-2-yl)benzenesulfonamide], the IC50 is 12.4 µM at NaV1.1, 0.464 µM on NaV1.6 and 8.16 µM on NaV1.5.
Regarding `Cc1ccccc1CN1CCC(Oc2ccc(S(=O)(=O)Nc3nccs3)cc2Cl)CC1` [Example 91, 3-chloro-4-(1-(2-methylbenzyl)piperidin-4-yloxy)-N-(thiazol-2-yl)benzenesulfonamide], the IC50 against NaV1.1 stood at 7.2 µM; on NaV1.6, 1.2 µM; at NaV1.5, 6.94 µM.
The corresponding values for `Cc1ccc(CN2CCC(Oc3ccc(S(=O)(=O)Nc4nccs4)cc3Cl)CC2)cc1C` [Example 93, 3-chloro-4-(1-(3,4-dimethylbenzyl)piperidin-4-yloxy)-N-(thiazol-2-yl)benzenesulfonamide] are 12.6 µM, 3.62 µM and 12.5 µM.
The corresponding values for `Cc1cc(C)cc(CN2CCC(Oc3ccc(S(=O)(=O)Nc4nccs4)cc3Cl)CC2)c1` [Example 94, 3-chloro-4-(1-(3,5-dimethylbenzyl)piperidin-4-yloxy)-N-(thiazol-2-yl)benzenesulfonamide] are 11.4 µM, 3.44 µM and 7.62 µM.
The matching figures for `O=S(=O)(Nc1ncns1)c1ccc(O[C@@H]2CCN(Cc3ccccc3)C2)c(Cl)c1` [Example 96, (R)-4-(1-benzylpyrrolidin-3-yloxy)-3-chloro-N-(1,2,4-thiadiazol-5-yl)benzenesulfonamide 2,2,2-trifluoroacetate]: 25.7 µM, 11.9 µM and greater than 30 µM.
In the case of `Cc1cc(C)cc(CN2CC[C@@H](Oc3ccc(S(=O)(=O)Nc4ncns4)cc3Cl)C2)c1` [Example 98, (R)-3-chloro-4-(1-(3,5-dimethylbenzyl)pyrrolidin-3-yloxy)-N-(1,2,4-thiadiazol-5-yl)benzenesulfonamide 2,2,2-trifluoroacetate], the half-inhibitory concentration (IC50) against NaV1.1 is 21.9 µM; at NaV1.6, 7.53 µM; at NaV1.5, greater than 30 µM.
The matching figures for `Cc1cc(S(=O)(=O)Nc2cscn2)c(F)cc1N(C)[C@H]1CCN(Cc2csc(C(C)C)n2)C1` [Example 107, (S)-2-fluoro-4-((1-((2-isopropylthiazol-4-yl)methyl)pyrrolidin-3-yl)(methyl)amino)-5-methyl-N-(thiazol-4-yl)benzenesulfonamide 2,2,2-trifluoroacetate]: 4.1 µM, 0.049 µM and 9.6 µM.
The matching figures for `Cc1cc(S(=O)(=O)Nc2cscn2)c(F)cc1N(C)[C@H]1CCN(Cc2ccnn2CC(F)(F)F)C1` [Example 108, (S)-2-fluoro-5-methyl-4-(methyl(1-((1-(2,2,2-trifluoroethyl)-1H-pyrazol-5-yl)methyl)pyrrolidin-3-yl)amino)-N-(thiazol-4-yl)benzenesulfonamide]: 12.5 µM, 5.49 µM and greater than 30 µM.
As to `Cc1cc(S(=O)(=O)Nc2cscn2)c(F)cc1N(C)[C@H]1CCN([C@H]2C[C@@H](c3ccccc3)C2)C1` [Example 109, 2-fluoro-5-methyl-4-(methyl((S)-1-((1s,3R)-3-phenylcyclobutyl)-pyrrolidin-3-yl)amino)-N-(thiazol-4-yl)benzenesulfonamide formate], the IC50 against NaV1.1 was 1.99 µM; at NaV1.6, 1.11 µM; on NaV1.5, 2.8 µM.
Regarding `Cc1nc(CN2CC[C@H](N(C)c3cc(F)c(S(=O)(=O)Nc4cscn4)cc3C)C2)cs1` [Example 110, (S)-2-fluoro-5-methyl-4-(methyl(1-((2-methylthiazol-4-yl)methyl)pyrrolidin-3-yl)amino)-N-(thiazol-4-yl)benzenesulfonamide formate], the figures for the IC50 at NaV1.1, at NaV1.6 and on NaV1.5 were greater than 30 µM, 0.262 µM and greater than 30 µM, respectively.
Consider `Cc1cc(S(=O)(=O)Nc2cscn2)c(F)cc1N(C)[C@H]1CCN(Cc2ccn(C)n2)C1` [Example 111, (S)-2-fluoro-5-methyl-4-(methyl(1-((1-methyl-1H-pyrazol-3-yl)methyl)pyrrolidin-3-yl)amino)-N-(thiazol-4-yl)benzenesulfonamide formate], for which the IC50 against NaV1.1 was greater than 30 µM; at NaV1.6 it was 0.763 µM; at NaV1.5, greater than 30 µM.
For `Cc1cc(S(=O)(=O)Nc2cscn2)c(F)cc1N(C)[C@H]1CCN(Cc2ccccc2C(F)F)C1` [Example 112, (S)-4-((1-(2-(difluoromethyl)benzyl)-pyrrolidin-3-yl)(methyl)amino)-2-fluoro-5-methyl-N-(thiazol-4-yl)benzenesulfonamide], the IC50 turned out to be 4.6 µM at NaV1.1, 0.773 µM on NaV1.6 and 8.19 µM on NaV1.5.
`Cc1cc(S(=O)(=O)Nc2cscn2)c(F)cc1N(C)[C@H]1CCN(Cc2cccc(O)c2)C1` [Example 114, (S)-2-fluoro-4-((1-(3-hydroxybenzyl)-pyrrolidin-3-yl)(methyl)amino)-5-methyl-N-(thiazol-4-yl)benzenesulfonamide]: the figures for the IC50 on NaV1.1, on NaV1.6 and on NaV1.5 were 25.9 µM, 2.25 µM and greater than 30 µM, respectively.
The matching figures for `Cc1cc(S(=O)(=O)Nc2cscn2)c(F)cc1N(C)[C@H]1CCN(CCc2ccccc2)C1` [Example 115, (S)-2-fluoro-5-methyl-4-(methyl(1-phenethylpyrrolidin-3-yl)amino)-N-(thiazol-4-yl)benzenesulfonamide]: 6.75 µM, 1.6 µM and 19.3 µM.
As for `Cc1cc(S(=O)(=O)Nc2cscn2)c(F)cc1N(C)[C@H]1CCN(Cc2ncccc2OC(C)C)C1` [Example 116, (S)-2-fluoro-4-((1-((3-isopropoxypyridin-2-yl)methyl)pyrrolidin-3-yl)(methyl)amino)-5-methyl-N-(thiazol-4-yl)benzenesulfonamide formate], the IC50 at NaV1.1 was 29.3 µM; at NaV1.6, 0.529 µM; on NaV1.5, greater than 30 µM.
The matching figures for `Cc1cc(S(=O)(=O)Nc2cscn2)c(F)cc1N(C)[C@H]1CCN([C@H]2C[C@H](c3ccccc3)C2)C1` [Example 117, 2-fluoro-5-methyl-4-(methyl((S)-1-((1r,3S)-3-phenylcyclobutyl)-pyrrolidin-3-yl)amino)-N-(thiazol-4-yl)benzenesulfonamide formate]: 2.26 µM, 1.45 µM and 3.09 µM.
For `Cc1cc(S(=O)(=O)Nc2cscn2)c(F)cc1N(C)[C@H]1CCN(Cc2ccn(CC(F)(F)F)n2)C1` [Example 118, (S)-2-fluoro-5-methyl-4-(methyl(1-((1-(2,2,2-trifluoroethyl)-1H-pyrazol-3-yl)methyl)pyrrolidin-3-yl)amino)-N-(thiazol-4-yl)benzenesulfonamide], the concentration for half-maximal inhibition (IC50) was 12.9 µM against NaV1.1, 0.058 µM on NaV1.6 and greater than 30 µM at NaV1.5.
The matching figures for `COc1ccccc1CN1CC[C@H](N(C)c2cc(F)c(S(=O)(=O)Nc3cscn3)cc2C)C1` [Example 119, (S)-2-fluoro-4-((1-(2-methoxybenzyl)-pyrrolidin-3-yl)(methyl)amino)-5-methyl-N-(thiazol-4-yl)benzenesulfonamide formate]: 28.8 µM, 0.368 µM and 20.2 µM.
On to `COc1cccnc1CN1CC[C@H](N(C)c2cc(F)c(S(=O)(=O)Nc3cscn3)cc2C)C1` [Example 120, (S)-2-fluoro-4-((1-((3-methoxypyridin-2-yl)methyl)pyrrolidin-3-yl)(methyl)amino)-5-methyl-N-(thiazol-4-yl)benzenesulfonamide formate], for which the IC50 on NaV1.1 was greater than 30 µM; at NaV1.6 it was 0.39 µM; at NaV1.5, 22.9 µM.
Turning to `Cc1cc(CN2CC[C@H](N(C)c3cc(F)c(S(=O)(=O)Nc4cscn4)cc3C)C2)ns1` [Example 121, (S)-2-fluoro-5-methyl-4-(methyl(1-((5-methylisothiazol-3-yl)methyl)pyrrolidin-3-yl)amino)-N-(thiazol-4-yl)benzenesulfonamide formate], the results for the IC50 against NaV1.1, at NaV1.6 and at NaV1.5 were greater than 30 µM, 1.47 µM and greater than 30 µM, respectively.

Source of the values: patent publication US10246453B2, “Benzenesulfonamide compounds and their use as therapeutic agents” (Xenon Pharmaceuticals Inc., priority 2016, dated 2019).
